Test system: 857933-349-R-J2-PDC complex spheroids, viability
Assay: Anticancer human tumor 857933-349-R-J2-PDC patient-derived colon adenocarcinoma cell line growth inhibition [GQUAD]
Conditions: for IC50: curve of first compound; for viability, T/C: stronger effect = lower value
Method in brief: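 Multi-cell-type spheroids of tumor cells with HUVEC and mesenchymal stem cells, treated with drug combinations. Concentrations descend in half-log steps from near clinical Cmax, or from 10 microM where Cmax is unknown; viability read-out.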

[1] = second compound 0.0316 µM, first compound 0.0316 µM
[2] = second compound 0.0316 µM, first compound 0.1 µM
[3] = second compound 0.0316 µM, first compound 0.316 µM
[4] = second compound 0.0316 µM, first compound 1 µM
[5] = second compound 0.0316 µM, first compound 3.16 µM
[6] = second compound 0.0316 µM, first compound 10 µM
[7] = second compound 0.1 µM, first compound 0.0316 µM
[8] = second compound 0.1 µM, first compound 0.1 µM
[9] = second compound 0.1 µM, first compound 0.316 µM
[10] = second compound 0.1 µM, first compound 1 µM
[11] = second compound 0.1 µM, first compound 3.16 µM
[12] = second compound 0.1 µM, first compound 10 µM
[13] = second compound 0.316 µM, first compound 0.0316 µM
[14] = second compound 0.316 µM, first compound 0.1 µM
[15] = second compound 0.316 µM, first compound 0.316 µM
[16] = second compound 0.316 µM, first compound 1 µM
[17] = second compound 0.316 µM, first compound 3.16 µM
[18] = second compound 0.316 µM, first compound 10 µM
[19] = second compound 1 µM, first compound 0.0316 µM
[20] = second compound 1 µM, first compound 0.1 µM
[21] = second compound 1 µM, first compound 0.316 µM
[22] = second compound 1 µM, first compound 1 µM
[23] = second compound 1 µM, first compound 3.16 µM
[24] = second compound 1 µM, first compound 10 µM
[25] = second compound 3.16 µM, first compound 0.0316 µM
[26] = second compound 3.16 µM, first compound 0.1 µM
[27] = second compound 3.16 µM, first compound 0.316 µM
[28] = second compound 3.16 µM, first compound 1 µM
[29] = second compound 3.16 µM, first compound 3.16 µM
[30] = second compound 3.16 µM, first compound 10 µM
[31] = second compound 10 µM, first compound 0.0316 µM
[32] = second compound 10 µM, first compound 0.1 µM
[33] = second compound 10 µM, first compound 0.316 µM
[34] = second compound 10 µM, first compound 1 µM
[35] = second compound 10 µM, first compound 3.16 µM
[36] = second compound 10 µM, first compound 10 µM
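Note: spheroids exposed to compounds for one week before readout.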
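Throughout, for viability, T/C: percent viability relative to vehicle DMSO wells taken as 100%.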

For CC1COCCN1c1cc(-c2ccnn2C)c2ccnc(-c3ccn[nH]3)c2n1 (centres undefined) + CN(C)c1ccc(Nc2c3ccc(NC(=O)CCN4CCCC4)cc3nc3cc(NC(=O)CCN4CCCC4)ccc23)cc1, the IC50 (second compound 0.0316 µM) was > 10000 nM, the IC50 (second compound 0.1 µM) was > 10000 nM and the IC50 (second compound 0.316 µM) was > 10000 nM. For the same molecule, the IC50 (second compound 1 µM) was > 10000 nM, the IC50 (second compound 3.16 µM) was > 10000 nM and the IC50 (second compound 10 µM) was 2950 nM. It also gave a viability, T/C [1] of 98.3%, a viability, T/C [2] of 80.7% and a viability, T/C [3] of 78%. For the same molecule, the viability, T/C [4] was 60.8%, the viability, T/C [5] was 56.2% and the viability, T/C [6] was 62.5%. It also gave a viability, T/C [7] of 96.1%, a viability, T/C [8] of 82.5% and a viability, T/C [9] of 73.5%. For the same molecule, the viability, T/C [10] was 58.3%, the viability, T/C [11] was 54.3% and the viability, T/C [12] was 69.7%. The viability, T/C [13] was 90.8%, the viability, T/C [14] was 80.8% and the viability, T/C [15] was 74.7%. The viability, T/C [16] was 59.4%, the viability, T/C [17] was 58.6% and the viability, T/C [18] was 63.1%. For the same molecule, the viability, T/C [19] was 93.5%, the viability, T/C [20] was 73.4% and the viability, T/C [21] was 73.8%. For the same molecule, the viability, T/C [22] was 55.9%, the viability, T/C [23] was 58.4% and the viability, T/C [24] was 54.3%. The viability, T/C [25] was 85.9%, the viability, T/C [26] was 71.8% and the viability, T/C [27] was 66.1%. The viability, T/C [28] was 53.1%, the viability, T/C [29] was 58.9% and the viability, T/C [30] was 52.4%. It also gave a viability, T/C [31] of 75.8%, a viability, T/C [32] of 70.8% and a viability, T/C [33] of 61.9%. It also gave a viability, T/C [34] of 55.2%, a viability, T/C [35] of 49.6% and a viability, T/C [36] of 44.6%.

For CC1COCCN1c1cc(C2(O)CC3CCC(C2)O3)c2cnn(-c3ccn[nH]3)c2n1 (centres undefined) + Cc1cnc(CNC(=O)c2c(=O)c3ccc(N4CCCN(C)CC4)nc3n3c2sc2ccccc23)cn1, the IC50 (second compound 0.0316 µM) was < 31.6 nM, the IC50 (second compound 0.1 µM) was < 31.6 nM and the IC50 (second compound 0.316 µM) was < 31.6 nM. For the same molecule, the IC50 (second compound 1 µM) was < 31.6 nM, the IC50 (second compound 3.16 µM) was < 31.6 nM and the IC50 (second compound 10 µM) was < 31.6 nM. It also gave a viability, T/C [1] of 49.9%, a viability, T/C [2] of 38.6% and a viability, T/C [3] of 36.8%. It also gave a viability, T/C [4] of 32.6%, a viability, T/C [5] of 35.3% and a viability, T/C [6] of 32%. For the same molecule, the viability, T/C [7] was 33%, the viability, T/C [8] was 30.3% and the viability, T/C [9] was 21.1%. It also gave a viability, T/C [10] of 28%, a viability, T/C [11] of 31.8% and a viability, T/C [12] of 34%. It also gave a viability, T/C [13] of 8.32%, a viability, T/C [14] of 5.49% and a viability, T/C [15] of 5.41%. For the same molecule, the viability, T/C [16] was 4.77%, the viability, T/C [17] was 9.73% and the viability, T/C [18] was 13.8%. The viability, T/C [19] was 2.88%, the viability, T/C [20] was 2.12% and the viability, T/C [21] was 2.17%. The viability, T/C [22] was 2.14%, the viability, T/C [23] was 4.27% and the viability, T/C [24] was 1.54%. The viability, T/C [25] was 1.85%, the viability, T/C [26] was 1.84% and the viability, T/C [27] was 1.55%. The viability, T/C [28] was 1.35%, the viability, T/C [29] was 1.5% and the viability, T/C [30] was 0.57%. It also gave a viability, T/C [31] of 0.52%, a viability, T/C [32] of 0.38% and a viability, T/C [33] of 0.33%. It also gave a viability, T/C [34] of 0.38%, a viability, T/C [35] of 0.85% and a viability, T/C [36] of 0.32%.
